{"source": "patent US20250154358A1", "about": "“ORGANIC DYE COMPOSITION, AND SPRAY AGENT COMPRISING SAME” (PANASONIC INTELLECTUAL PROPERTY MANAGEMENT CO., LTD., priority 2022, published 2025)", "key": {"E. coli": {"tested_on": "E. coli", "experiment": "Color change observation after spraying on bacterial liquid (E. coli)", "format": "cell-based", "details": "detection of E. coli; statement in the discussion", "method": "100 μL of a bacterial liquid (E. coli, […]) was added dropwise onto a slide glass. Then, a sample solution (organic dye composition) of each of Examples and Comparative Examples was placed in a spray bottle (φ39×147 mm, capacity 100 ml), and sprayed (one push) to the bacterial liquid on the slide glass. Thereafter, after leaving for 15 minutes, the following fluorescence observation and color change observation were performed. • Fluorescence observation (visual visibility)\nFor fluorescence observation, the sprayed part was irradiated with an LED light (530 nm output, color: green), and visual observation was performed through a red filter. The evaluation criteria were as follows. • good: Emission of the solution can be clearly visually recognized • fair: Emission of the solution can be visually recognized but very weak • poor: Emission of the solution cannot be visually recognized • Color change • Color change was visually observed and evaluated according to the following criteria: • good: Color change of the solution can be clearly visually recognized • fair: Color change of the solution can be visually recognized but very weak • poor: Color change of the solution cannot be visually recognized or no color change occurs"}, "Staphylococcus aureus": {"tested_on": "Staphylococcus aureus", "experiment": "Color change observation after spraying on bacterial liquid (Staphylococcus aureus)", "format": "cell-based", "details": "detection of S. aureus; statement in the discussion"}}}
{"smiles": "CC(C)COC(=O)Oc1ccc2nc3ccc(=O)cc-3oc2c1", "note": "[Formula (4)]", "values": [{"measurement": "color change, compared with the dye represented by Formula (2)", "setting": "E. coli", "value": "more clearly visually recognized"}, {"measurement": "color change, compared with the dye represented by Formula (2)", "setting": "Staphylococcus aureus", "value": "more clearly visually recognized"}]}
